We go through 5 compounds from paper PMC10040842, “Cyclopia extracts act as selective estrogen receptor subtype downregulators in estrogen receptor positive breast cancer cell lines: Comparison to standard of care breast cancer endocrine therapies and a selective estrogen receptor agonist and antagonist” (Frontiers in Pharmacology, 2023).

Test [1] addresses T1, ERβ (Homo sapiens, UniProt Q92731). Details: endogenous in cells; method as in Power and Thompson (2003). The settings on record: T47D; 1 nM E2, 24 h 1 μM 4-OHT; ref Power and Thompson (2003); cited from earlier work.
The target of test [2] is T1, ERβ. Also noted: although both cell lines express ERα and ERβ, MCF7 has a high ERα/ERβ ratio; endogenous in cells; host or cells: MCF7. The settings on record: cited from earlier work.
Test [3] concerns the target T1, ERβ. Kind of test: Effect of translational inhibition (CHX) on modulation of ERβ protein levels in MCF7 cells. Type of test: cell-based. Also noted: although both cell lines express ERα and ERβ, MCF7 has a high ERα/ERβ ratio; endogenous in cells; host or cells: MCF7.
For test [4], the target named is T1, ERβ. Description: Western blot, dose-response modulation of ERβ protein levels in T47D cells. Type of test: cell-based. Details: endogenous in cells. The settings on record: 24 h, relative to vehicle (DMSO) = 100%.
The subject of test [5] is ERα. The settings on record: T47D, cited from earlier work; for Effect on ERα protein levels: 24 h, 1 nM E2, 1 μM 4-OHT, ref Power and Thompson (2003).
The target in test [6] is T1, ERβ. Description: Western blot, dose-response modulation of ERβ protein levels in MCF7 cells. Type of test: cell-based. Also noted: although both cell lines express ERα and ERβ, MCF7 has a high ERα/ERβ ratio; endogenous in cells; host or cells: MCF7. The settings on record: 24 h, relative to vehicle (DMSO) = 100%. For orientation: In western blotting, separated proteins are transferred to a membrane and probed.

The subject of test [7] is ERα. The settings on record: MCF7, cited from earlier work; for ERα protein levels downregulated: 48 h, 1 nM E2, 100 nM fulvestrant, 1 μM 4-OHT, ref Garner et al. (2015); for ERα protein levels downregulated to: after 6 h, 100 nM, ref Yeh et al. (2013).
Test [8] concerns the target T2, ERα (Homo sapiens, UniProt P03372).
T2 sequence (P03372 1-595): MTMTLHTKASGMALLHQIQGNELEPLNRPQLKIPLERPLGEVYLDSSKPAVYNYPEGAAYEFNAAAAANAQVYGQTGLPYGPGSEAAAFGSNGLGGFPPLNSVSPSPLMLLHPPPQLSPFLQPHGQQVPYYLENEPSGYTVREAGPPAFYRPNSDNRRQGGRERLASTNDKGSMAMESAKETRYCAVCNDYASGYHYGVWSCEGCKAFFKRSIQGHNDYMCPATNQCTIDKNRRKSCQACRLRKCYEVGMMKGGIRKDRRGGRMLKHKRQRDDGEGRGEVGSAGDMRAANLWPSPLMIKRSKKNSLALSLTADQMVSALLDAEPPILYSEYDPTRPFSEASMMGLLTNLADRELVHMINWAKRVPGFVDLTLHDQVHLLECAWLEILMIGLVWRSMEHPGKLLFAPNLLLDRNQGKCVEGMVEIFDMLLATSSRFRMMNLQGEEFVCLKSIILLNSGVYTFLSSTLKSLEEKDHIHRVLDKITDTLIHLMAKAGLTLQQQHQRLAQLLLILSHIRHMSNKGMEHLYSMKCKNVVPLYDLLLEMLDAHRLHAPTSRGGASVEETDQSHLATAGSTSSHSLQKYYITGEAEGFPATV
Kind of test: Western blot, dose-response modulation of ERα protein levels in T47D cells. Format: cell-based. Also noted: endogenous in cells. The following applies: 24 h; for Efficacy, ERα (AVG % ER remaining ± SD): relative to vehicle (DMSO) = 100%.

Test [9] has as its target T1, ERβ. Description: Effect of translational inhibition (CHX) on modulation of ERβ protein levels in T47D cells. Also noted: endogenous in cells. The following applies: 1 nM CHX, over the concentrations tested. Format: cell-based.
For test [10], the target named is T2, ERα. Description: Western blot, dose-response modulation of ERα protein levels in MCF7 cells. Format: cell-based. Also noted: although both cell lines express ERα and ERβ, MCF7 has a high ERα/ERβ ratio; endogenous in cells; host or cells: MCF7. The following applies: 24 h; for Efficacy, ERα (AVG % ER remaining ± SD): relative to vehicle (DMSO) = 100%, maximal response of fitted dose-response curve.

For test [11], the target named is T2, ERα. Kind of test: Effect of translational inhibition (CHX) on modulation of ERα protein levels in T47D cells. Format: cell-based. Details: endogenous in cells. The settings on record: 1 nM CHX, over the concentrations tested.
Test [12] deals with T2, ERα. Kind of test: Effect of translational inhibition (CHX) on modulation of ERα protein levels in MCF7 cells. Details: although both cell lines express ERα and ERβ, MCF7 has a high ERα/ERβ ratio; endogenous in cells; host or cells: MCF7. The settings on record: 1 nM CHX, over the concentrations tested. Format: cell-based.
Setting [13] is: MCF7, 1 nM E2, 24 h 1 μM 4-OHT, ref Power and Thompson (2003).
[14] abbreviates: MCF7, 1 nM E2, 1 μM fulvestrant, ref Mishra et al. (2016).
[15] abbreviates: MCF7 cells transfected with an ERβ expression vector, 10 nM, ref Peekhaus et al. (2004).
The mark [16] stands for this setting: MCF7, 1 nM CHX, over the concentrations tested.

pIC50: −log10 of the molar value. Where two headings read alike, the source gives them in different places. Marks after values point to notes of the source that are not given here.

T1 sequence (Q92731 whole entry): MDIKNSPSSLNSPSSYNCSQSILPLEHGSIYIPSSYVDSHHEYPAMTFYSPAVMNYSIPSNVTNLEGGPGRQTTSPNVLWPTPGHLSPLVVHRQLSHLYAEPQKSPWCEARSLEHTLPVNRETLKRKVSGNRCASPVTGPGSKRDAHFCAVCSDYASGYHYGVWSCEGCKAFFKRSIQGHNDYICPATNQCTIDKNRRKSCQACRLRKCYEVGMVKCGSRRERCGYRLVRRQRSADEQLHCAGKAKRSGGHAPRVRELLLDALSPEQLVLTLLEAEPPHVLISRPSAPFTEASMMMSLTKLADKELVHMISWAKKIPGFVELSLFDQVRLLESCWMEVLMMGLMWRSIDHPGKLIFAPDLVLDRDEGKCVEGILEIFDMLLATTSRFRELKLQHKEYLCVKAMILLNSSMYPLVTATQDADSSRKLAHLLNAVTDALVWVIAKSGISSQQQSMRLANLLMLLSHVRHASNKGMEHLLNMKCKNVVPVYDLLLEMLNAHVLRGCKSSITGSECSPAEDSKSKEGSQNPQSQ

With `CC/C(=C(\c1ccc(O)cc1)c1ccc(OCCN(C)C)cc1)c1ccccc1` [4-OHT, (2)-4-hydroxytamoxifen], the “Effect on ERβ protein levels” value at ERβ [1] is “significant downregulation”; at ERβ [2] (setting [13]) it was “significantly upregulated”. Also, the “Change in ERβ protein levels on addition of CHX” value (“Change in ERβ protein levels” below) on ERβ [3] is “not significantly altered”. In addition, the “Efficacy, ERβ (AVG % ER remaining ± SD)” value at ERβ [4] is on record as 151.8 ± 10.8^b*** %; on ERβ [6] it was 142.9 ± 8.2^b*** %. In addition, the “Effect on ERα protein levels” value in the test on ERα [5] is “upregulate”.
As to `C[C@]12CC[C@@H]3c4ccc(O)cc4CC[C@H]3[C@@H]1CC[C@@H]2O` [E2, 17β-estradiol], the “Effect on ERβ protein levels” value is recorded as “significantly upregulated” on ERβ [1], “downregulated” on ERβ [2] (setting [14]), “significantly upregulated” on ERβ [2] (setting [13]) and “downregulated” on ERβ [2] (setting [15]). Also, the “Effect on ERα protein levels” value in the test on ERα [7] (24 h, 1 nM E2, 1 μM 4-OHT, ref Power and Thompson (2003)) is given as “downregulated”; with ERα [5], “no effect”. Also, the “ERα protein levels downregulated” value in the test on ERα [7] was 100%. For the same compound, the “ERα protein levels downregulated to” value in the test with ERα [7] was 35%. The “Efficacy, ERβ (AVG % ER remaining ± SD)” value is given as 58.7 ± 9.0^a % on ERβ [4] and 53.3 ± 5.6^a % at ERβ [6].
With `C[C@]12CC[C@@H]3c4ccc(O)cc4C[C@@H](CCCCCCCCC[S+]([O-])CCCC(F)(F)C(F)(F)F)[C@H]3[C@@H]1CC[C@@H]2O` (stereo partly shown) [Ful, fulvestrant], the “Effect on ERβ protein levels” value on ERβ [2] (setting [14]) and on ERβ [2] (setting [15]) was “upregulated” each time. Besides, the “Change in ERβ protein levels” value was “not significantly altered” on ERβ [3] (setting [16]) and 1.2 fold on ERβ [9]. Besides, the “Efficacy of downregulation of ERα protein levels” value with ERα [7] (1 μM, 4 h, ref Joseph et al. (2016)) is given as 6.4%. Further, the “ERα protein levels downregulated” value in the test on ERα [7] was 100%. Also, in the test with ERα [7], the “ERα protein levels downregulated to” value is listed as 35%. Besides, in the test on ERα [7] (ref Joseph et al. (2016), read-out: Potency of downregulation of ERα protein levels), the pIC50 is 9.41. The “Efficacy, ERα (AVG % ER remaining ± SD)” value on ERα [8] was 64.1 ± 20.9^a %; on ERα [10] it was 46.8 ± 6.8^a %. Moreover, the “Efficacy, ERβ (AVG % ER remaining ± SD)” value is given as 134.1 ± 4.8^b*** % at ERβ [4] and 127.1 ± 9.6^b*** % at ERβ [6]. In addition, the “ERα protein levels downgraded” value in the test on ERα [5] (concentration range 0.03–1 μM, ref Liu et al. (2016)) is recorded as “more than 50%”.
On to `O=C1C[C@@H](c2ccc(O)cc2)Oc2cc(O)ccc21` [Liq, liquiritigenin], for which the “Potency, ERα (AVG IC50 in Log μg/mL ± SD)” value is −9.8 ± 1.0^a ^, ^c** Log μg/mL on ERα [8] and −1.9 ± 0.8^b**** Log μg/mL on ERα [10]. Moreover, the “Efficacy, ERα (AVG % ER remaining ± SD)” value at ERα [8] is listed as 87.5 ± 2.5^b ^, ^c %; on ERα [10] it was 65.9 ± 10.9^a %. The “Change in ERα protein levels on addition of CHX” value on ERα [11] and at ERα [12] was “no significant difference” in each case.
As for `Cc1c(-c2ccc(O)cc2)nn(-c2ccc(O)cc2)c1-c1ccc(OCCN2CCCCC2)cc1` [MPP, methylpiperidinopyrazole], the “Change in ERβ protein levels” value is listed as 1.1 fold at ERβ [3] (setting [16]) and “no significant difference” at ERβ [9]. Further, the “Efficacy, ERα (AVG % ER remaining ± SD)” value is 115.7 ± 3.4^b** % on ERα [8] and 120.9 ± 3.0^b*** % at ERα [10]. Further, the results for the “Change in ERα protein levels on addition of CHX” value at ERα [11] and at ERα [12] were “no significant difference” and 1.1 fold, respectively. Besides, the “Efficacy, ERβ (AVG % ER remaining ± SD)” value at ERβ [4] was 108.0 ± 2.1^b*** %; on ERβ [6] it was 122.0 ± 2.3^b*** %.
